# Laboratory results reported in patent publication US20050214367A1, “Processes for making coated phytochemicals and tocopherols and products formed therefrom” (priority 2004, published 2005).
# Experiments:
# [1] = Screen (mesh) particle size analysis; assay type: physicochemical; conditions: uncoated feed powder
# [2] = uncoated feed powder
# [3] = uncoated feed powder; remark: listed apart in the source
smiles,measurement,setting,value
"Cc1c(C)c2c(c(C)c1OC(=O)CCC(=O)O)CC[C@@](C)(CCC[C@H](C)CCC[C@H](C)CCCC(C)C)O2 [succinate (vitamin E), tocopherol succinate]",mean particle size,[1],about 200 mesh
same,loose bulk density,[2],0.38 g/cc
same,moisture content,[3],0.06 % by weight
